Experimental data taken from paper PMC9505425, “Targeting of the Mitochondrial TET1 Protein by Pyrrolo[3,2-b]pyrrole Chelators” (International Journal of Molecular Sciences, 2022).
“And” between values parts separate entries of the source, which are not always exact repeats. Identical values can stand only once.

Assays:
[1] = MTT cytotoxicity assay, HF-P4; type: cell-based, human; conditions: human, HF-P4 normal human dermal fibroblasts, repeats, read-out: Cell viability %; for viability at 48 h, 0.1 µM: HF-P4, 100 nM; for viability at 48 h, 0.5 µM: HF-P4, 500 nM; for viability at 48 h, 0.75 µM: HF-P4, 750 nM; for viability at 48 h, 1 µM: HF-P4, 1 uM; for viability at 48 h, 2.5 µM: HF-P4, 2.5 uM; for viability at 48 h, 5 µM: HF-P4, 5 uM; for viability at 48 h, 7.5 µM: HF-P4, 7.5 uM; for viability at 48 h, 10 µM: HF-P4, 10 uM; for viability at 48 h, 15 µM: HF-P4, 15 uM; for viability at 48 h, 20 µM: HF-P4, 20 uM
In short: (§1)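 Cells seeded at 1.0 × 10^5 per well, grown 24 h, then exposed 48 h to compounds at 0.1–20 μM (DMSO ≤1%). MTT added for 2 h, formazan dissolved in DMSO, absorbance read at 570 nm. IC50 calculated relative to untreated cells (100%).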

HF-P4 cells = assay: MTT cytotoxicity assay, HF-P4; type: cell-based, human; conditions: 48 h; for Cell viability %: repeats; for IC50: Homo sapiens, MTT
In short: as §1

H-1299 cells = assay: MTT cytotoxicity assay, H-1299; type: cell-based, human; conditions: for IC50: NCI-H1299, MTT; for IC50 / Cell viability %: 48 h
In short: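 Cells seeded at 1.0 × 10^5/well, grown 24 h, then exposed 48 h to compounds at 0.1–20 μM (≤1% DMSO); U118-MG in DMEM, H1299 in RPMI 1640, both with 10% FBS, 37 °C. MTT 2 h, formazan in DMSO read at 570 nm; IC50 relative to untreated cells (100%).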

Caov-3 cells = assay: MTT cytotoxicity assay, Caov-3; type: cell-based, human; conditions: for Cell viability % / IC50: 48 h; for IC50: Caov-3, MTT
In short: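 Caov-3 ovarian adenocarcinoma cells, grown for 24 h after plating, were exposed for 48 h to compound at 0.1–20 μM with at most 1% DMSO. Viability was measured by MTT reduction (2 h, A570) relative to untreated cells. IC50 was the concentration inhibiting 50% of cell growth.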

[2] = Homo sapiens, NCI-H1299, 48 h, H-1299, 2.5 uM, repeats, read-out: Cell viability %
[3] = Homo sapiens, NCI-H1299, 48 h, H-1299, 5 uM, repeats, read-out: Cell viability %
[4] = Homo sapiens, NCI-H1299, 48 h, H-1299, 10 uM, repeats, read-out: Cell viability %
[5] = Homo sapiens, NCI-H1299, 48 h, H-1299, 15 uM, repeats, read-out: Cell viability %
[6] = Homo sapiens, NCI-H1299, 48 h, H-1299, 20 uM, repeats, read-out: Cell viability %
[7] = Caov-3, 100 nM, repeats, 0.1 µM
[8] = Caov-3, 500 nM, repeats, 0.5 µM
[9] = Caov-3, 750 nM, repeats, 0.75 µM
[10] = Caov-3, 2.5 uM, repeats, 2.5 µM
[11] = Caov-3, 7.5 uM, repeats, 7.5 µM
[12] = Homo sapiens, Caov-3, 48 h, Caov-3, 100 nM, repeats, read-out: Cell viability %
[13] = Homo sapiens, Caov-3, 48 h, Caov-3, 1 uM, repeats, read-out: Cell viability %
[14] = Homo sapiens, Caov-3, 48 h, Caov-3, 2.5 uM, repeats, read-out: Cell viability %
[15] = Homo sapiens, Caov-3, 48 h, Caov-3, 5 uM, repeats, read-out: Cell viability %
[16] = Homo sapiens, Caov-3, 48 h, Caov-3, 10 uM, repeats, read-out: Cell viability %
[17] = Homo sapiens, Caov-3, 48 h, Caov-3, 15 uM, repeats, read-out: Cell viability %
[18] = Homo sapiens, Caov-3, 48 h, Caov-3, 20 uM, repeats, read-out: Cell viability %

In the case of Cc1ccc(-n2c(-c3ccc(C(=O)N/N=C/c4cc(F)ccc4O)cc3)cc3c2cc(-c2ccc(C(=O)N/N=C/c4cc(F)ccc4O)cc2)n3-c2ccc(C)cc2)cc1 [Compound 3], the viability at 48 h, 0.1 µM [1] is reported as 95.8%, the viability at 48 h, 0.5 µM [1] is reported as 99.9% and the viability at 48 h, 0.75 µM [1] is reported as 107%. For the same compound, the viability at 48 h, 1 µM [1] was 100%, the viability at 48 h, 2.5 µM [1] was 87.1% and the viability at 48 h, 5 µM [1] was 85.8%. The viability at 48 h, 7.5 µM [1] was 78.7%, the viability at 48 h, 10 µM [1] was 82.6% and the viability at 48 h, 15 µM [1] was 65.6%. The viability at 48 h, 20 µM [1] was 59%, the Cell viability % (HF-P4 cells; HF-P4, 100 nM, 0.1 µM) was 96.12% and 98.08% and the Cell viability % (HF-P4 cells; HF-P4, 500 nM, 0.5 µM) was 100.1756% and 103.312%. For the same compound, the Cell viability % (HF-P4 cells; HF-P4, 750 nM, 0.75 µM) was 98.1566% and 91.216%, the Cell viability % (HF-P4 cells; HF-P4, 1 uM, 1 µM) was 97.13% and 98.88% and the Cell viability % (HF-P4 cells; HF-P4, 2.5 uM, 2.5 µM) was 92.78% and 93.78%. For the same compound, the Cell viability % (HF-P4 cells; HF-P4, 5 uM, 5 µM) was 90.27% and 73.392%, the Cell viability % (HF-P4 cells; HF-P4, 7.5 uM, 7.5 µM) was 83.18% and 77.088% and the Cell viability % (HF-P4 cells; HF-P4, 10 uM, 10 µM) was 74.37% and 72.544%. For the same compound, the Cell viability % (HF-P4 cells; HF-P4, 15 uM, 15 µM) was 66.4% and 65.2%, the Cell viability % (HF-P4 cells; HF-P4, 20 uM, 20 µM) was 62.78% and 65.696% and the IC50 (HF-P4 cells) was greater than 20 µM. It also gave a viability at 2.5 µM (H-1299 cells; [2]) of 124%, a viability at 5 µM (H-1299 cells; [3]) of 85.7% and a viability at 10 µM (H-1299 cells; [4]) of 47.9%. It also gave a viability at 15 µM (H-1299 cells; [5]) of 58.9%, a viability at 20 µM (H-1299 cells; [6]) of 31.4% and an IC50 (H-1299 cells; Homo sapiens) of 10.6 µM. For the same compound, the Cell viability % (Caov-3 cells; [7]) was 80.39% and 71.14%, the Cell viability % (Caov-3 cells; [8]) was 93.5% and 75.39% and 98.76% and the Cell viability % (Caov-3 cells; [9]) was 86.6015% and 81.49% and 112.9009%. For the same compound, the Cell viability % (Caov-3 cells; Caov-3, 1 uM, repeats, 1 µM) was 86.92% and 97.81%, the Cell viability % (Caov-3 cells; [10]) was 89.39% and 98.69% and the Cell viability % (Caov-3 cells; Caov-3, 5 uM, repeats, 5 µM) was 67.61% and 86.52%. The Cell viability % (Caov-3 cells; [11]) was 83.04% and 61.94% and 104.0087%, the Cell viability % (Caov-3 cells; Caov-3, 10 uM, repeats, 10 µM) was 67.37% and 81.12% and the Cell viability % (Caov-3 cells; Caov-3, 15 uM, repeats, 15 µM) was 57.51% and 62.97%. The Cell viability % (Caov-3 cells; Caov-3, 20 uM, repeats, 20 µM) was 34.98% and 37.9%, the viability at 0.1 µM (Caov-3 cells; [12]) was 84.4% and the viability at 1 µM (Caov-3 cells; [13]) was 89.4%. It also gave a viability at 2.5 µM (Caov-3 cells; [14]) of 85.3%, a viability at 5 µM (Caov-3 cells; [15]) of 70.6% and a viability at 10 µM (Caov-3 cells; [16]) of 65.4%. The viability at 15 µM (Caov-3 cells; [17]) was 59%, the viability at 20 µM (Caov-3 cells; [18]) was 35.5% and the IC50 (Caov-3 cells; Homo sapiens) was 17.8 µM. For the same compound, the melting point was 337 to 338 °C.
Cc1ccc(-n2c(-c3ccc(C(=O)NN)cc3)cc3c2cc(-c2ccc(C(=O)NN)cc2)n3-c2ccc(C)cc2)cc1 [Compound 1] showed a viability at 48 h, 0.1 µM [1] of 101%, a viability at 48 h, 0.5 µM [1] of 106% and a viability at 48 h, 0.75 µM [1] of 94%. The viability at 48 h, 1 µM [1] was 105%, the viability at 48 h, 2.5 µM [1] was 94.3% and the viability at 48 h, 5 µM [1] was 80.7%. It also gave a viability at 48 h, 7.5 µM [1] of 77.3%, a viability at 48 h, 10 µM [1] of 70.5% and a viability at 48 h, 15 µM [1] of 67.1%. The viability at 48 h, 20 µM [1] was 64%, the Cell viability % (HF-P4 cells; HF-P4, 100 nM, 0.1 µM) was 110.5137% and 108.5444% and the Cell viability % (HF-P4 cells; HF-P4, 500 nM, 0.5 µM) was 109.6499% and 91.3%. The Cell viability % (HF-P4 cells; HF-P4, 750 nM, 0.75 µM) was 108.0378% and 98.14%, the Cell viability % (HF-P4 cells; HF-P4, 1 uM, 1 µM) was 114.0028% and 114.925% and the Cell viability % (HF-P4 cells; HF-P4, 2.5 uM, 2.5 µM) was 106.4486% and 88.2524%. For the same compound, the Cell viability % (HF-P4 cells; HF-P4, 5 uM, 5 µM) was 90.58% and 81.47%, the Cell viability % (HF-P4 cells; HF-P4, 7.5 uM, 7.5 µM) was 87.03% and 78.05% and the Cell viability % (HF-P4 cells; HF-P4, 10 uM, 10 µM) was 75.94% and 65.94%. The Cell viability % (HF-P4 cells; HF-P4, 15 uM, 15 µM) was 59.86% and 63.15%, the Cell viability % (HF-P4 cells; HF-P4, 20 uM, 20 µM) was 64.65% and 61.04% and the IC50 (HF-P4 cells) was greater than 20 µM. The Cell viability % (H-1299 cells; H-1299, 100 nM, repeats, 0.1 µM) was 74.42% and 77.2%, the Cell viability % (H-1299 cells; H-1299, 500 nM, repeats, 0.5 µM) was 114.5756% and 80.35% and 108.7959% and the Cell viability % (H-1299 cells; H-1299, 750 nM, repeats, 0.75 µM) was 97.3% and 84.13% and 122.0664%. For the same compound, the Cell viability % (H-1299 cells; H-1299, 1 uM, repeats, 1 µM) was 81.23% and 63.3%, the Cell viability % (H-1299 cells; H-1299, 2.5 uM, repeats, 2.5 µM) was 76.07% and 72.39% and the Cell viability % (H-1299 cells; H-1299, 5 uM, repeats, 5 µM) was 61.74% and 69.23%. For the same compound, the Cell viability % (H-1299 cells; H-1299, 7.5 uM, repeats, 7.5 µM) was 36.84% and 36.67%, the Cell viability % (H-1299 cells; H-1299, 10 uM, repeats, 10 µM) was 36.64% and 31.8986% and the Cell viability % (H-1299 cells; H-1299, 15 uM, repeats, 15 µM) was 23.04% and 23.96%. For the same compound, the Cell viability % (H-1299 cells; H-1299, 20 uM, repeats, 20 µM) was 17.01% and 14.68%, the viability at 0.1 µM (H-1299 cells; Homo sapiens, NCI-H1299, 48 h, H-1299, 100 nM, repeats, read-out: Cell viability %) was 86.7% and the viability at 1 µM (H-1299 cells; Homo sapiens, NCI-H1299, 48 h, H-1299, 1 uM, repeats, read-out: Cell viability %) was 69.9%. The viability at 2.5 µM (H-1299 cells; [2]) was 68%, the viability at 5 µM (H-1299 cells; [3]) was 57.7% and the viability at 7.5 µM (H-1299 cells; Homo sapiens, NCI-H1299, 48 h, H-1299, 7.5 uM, repeats, read-out: Cell viability %) was 38.4%. The viability at 10 µM (H-1299 cells; [4]) was 35.2%, the viability at 15 µM (H-1299 cells; [5]) was 23.9% and the viability at 20 µM (H-1299 cells; [6]) was 19.2%. The IC50 (H-1299 cells; Homo sapiens) was 6.89 µM, the Cell viability % (Caov-3 cells; [7]) was 80.61% and 94.8% and the Cell viability % (Caov-3 cells; [8]) was 91.36% and 100.9421% and 76.35%. For the same compound, the Cell viability % (Caov-3 cells; [9]) was 95.41% and 77.67%, the Cell viability % (Caov-3 cells; Caov-3, 1 uM, repeats, 1 µM) was 71.07% and 89.66% and the Cell viability % (Caov-3 cells; [10]) was 71.79% and 55.75%. For the same compound, the Cell viability % (Caov-3 cells; Caov-3, 5 uM, repeats, 5 µM) was 48.77% and 58.08%, the Cell viability % (Caov-3 cells; [11]) was 51.68% and 65.52% and the Cell viability % (Caov-3 cells; Caov-3, 10 uM, repeats, 10 µM) was 53.56% and 43.67%. For the same compound, the Cell viability % (Caov-3 cells; Caov-3, 15 uM, repeats, 15 µM) was 35.1% and 41.9%, the Cell viability % (Caov-3 cells; Caov-3, 20 uM, repeats, 20 µM) was 35.73% and 39.69% and the viability at 0.1 µM (Caov-3 cells; [12]) was 97.9%. For the same compound, the viability at 0.75 µM (Caov-3 cells; Homo sapiens, Caov-3, 48 h, Caov-3, 750 nM, repeats, read-out: Cell viability %) was 78.5%, the viability at 1 µM (Caov-3 cells; [13]) was 81.2% and the viability at 2.5 µM (Caov-3 cells; [14]) was 55.9%. The viability at 5 µM (Caov-3 cells; [15]) was 50.9%, the viability at 7.5 µM (Caov-3 cells; Homo sapiens, Caov-3, 48 h, Caov-3, 7.5 uM, repeats, read-out: Cell viability %) was 56.4% and the viability at 10 µM (Caov-3 cells; [16]) was 45.1%. For the same compound, the viability at 15 µM (Caov-3 cells; [17]) was 45.9%, the viability at 20 µM (Caov-3 cells; [18]) was 28.5% and the IC50 (Caov-3 cells; Homo sapiens) was 6.48 µM. For the same compound, the melting point was 312 to 313 °C.
